Data published in patent US20220296563A1, “ACYLATED ACTIVE AGENTS AND METHODS OF THEIR USE FOR THE TREATMENT OF METABOLIC DISORDERS AND NONALCOHOLIC FATTY LIVER DISEASE” (Flagship Pioneering Innovations V, Inc., priority 2019, published 2022).

How the values were obtained:
C57BL/6 mice = assay: In vivo evaluation in C57BL/6 mice fed a high-fat diet; conditions: vs. HFD control group, up to day 84
Protocol: Animals were allowed free access to food and drinking water for the entire study. Animals were weighed on a regular basis, and food and drinking water consumption monitored. Plasma and stool samples were collected at the beginning of the study and 42 days into the study. Additional blood was drawn from fasted mice 58 days into the study. Insulin tolerance tests were performed 72 or 73 days into the study. Following an approximate 4 h fast, 0.5 Units/kg insulin was administered intraperitoneally. Blood was collected pre-insulin challenge (t=0) and at t=15, 30, 60, 90, and 120 min following insulin challenge. Oral glucose tolerance tests were performed 79 or 80 days into the study. Following an approximate 4 h fast, 2 g/kg glucose was administered by oral gavage. Blood was collected pre-insulin challenge (t=0) and at t=15, 30, 60, 90, and 120 min following glucose challenge. At the end of the study, body weight, food consumption, blood glucose, serum ALT levels, serum AST levels, serum cholesterol (total cholesterol. HDL, and LDL levels), serum triglycerides levels, liver triglyceride levels, liver cholesterol levels, liver weight, subcutaneous were measured in all mice.

Mouse myocyte = Mouse myocyte lipolysis assay; format: cell-based; conditions: 100 μM, differentiated myocytes
Protocol: Cells were obtained from ATCC and cultured in Dulbecco's Modified Eagle's medium (DMEM) containing 20% fetal bovine serum and 1% penicillin/streptomycin at 37° C. in an incubator with 5% CO2 Once the cells became confluent, they were seeded into a tissue culture treated 96 well plate. The next day, the medium containing DMEM with 2% equine serum was used to start differentiation. Table 2 lists the tested compounds including those that reduced the release of glycerol (+, ++, or +++). The lipolytic rate of muscle triglycerides is associated with metabolic dysfunction including insulin resistance and liver steatosis. Compounds that lower lipolysis of adipocytes may improve metabolic function including improving insulin sensitivity and reducing liver steatosis, thus improving outcomes in patients with diabetes mellitus (e.g., prediabetes or type II diabetes) obesity, and hyperlipidemia.

Row | Compound | body weight (C57BL/6 mice) | Free glycerol % DMSO (Mouse myocyte)
1 | CC(=O)O[C@@H]1OC[C@@H](OC(C)=O)[C@H](OC(C)=O)[C@H]1OC(C)=O [compound 4] | induce weight loss | 
2 | O=C(O)c1cc(O)ccc1O [Gentisate] |  | +++ (50%<: +++)
